Laboratory results taken from ChEMBL document CHEMBL5291721, “A preclinical secondary pharmacology resource illuminates target-adverse drug reaction associations of marketed drugs” (Nat Commun, 2023).
Where a SMILES comes first, the peptide text is derived from it. [ ]: non-standard residue; d: D form. pGlu = O=C1CC[C@@H](C(=O)O)N1; Thz = O=C(O)[C@@H]1CSCN1

Columns and labels:
Androgen receptor [1] = target: T1, Androgen receptor (Rattus norvegicus, UniProt P15207); format: functional
T1 sequence (P15207 whole entry): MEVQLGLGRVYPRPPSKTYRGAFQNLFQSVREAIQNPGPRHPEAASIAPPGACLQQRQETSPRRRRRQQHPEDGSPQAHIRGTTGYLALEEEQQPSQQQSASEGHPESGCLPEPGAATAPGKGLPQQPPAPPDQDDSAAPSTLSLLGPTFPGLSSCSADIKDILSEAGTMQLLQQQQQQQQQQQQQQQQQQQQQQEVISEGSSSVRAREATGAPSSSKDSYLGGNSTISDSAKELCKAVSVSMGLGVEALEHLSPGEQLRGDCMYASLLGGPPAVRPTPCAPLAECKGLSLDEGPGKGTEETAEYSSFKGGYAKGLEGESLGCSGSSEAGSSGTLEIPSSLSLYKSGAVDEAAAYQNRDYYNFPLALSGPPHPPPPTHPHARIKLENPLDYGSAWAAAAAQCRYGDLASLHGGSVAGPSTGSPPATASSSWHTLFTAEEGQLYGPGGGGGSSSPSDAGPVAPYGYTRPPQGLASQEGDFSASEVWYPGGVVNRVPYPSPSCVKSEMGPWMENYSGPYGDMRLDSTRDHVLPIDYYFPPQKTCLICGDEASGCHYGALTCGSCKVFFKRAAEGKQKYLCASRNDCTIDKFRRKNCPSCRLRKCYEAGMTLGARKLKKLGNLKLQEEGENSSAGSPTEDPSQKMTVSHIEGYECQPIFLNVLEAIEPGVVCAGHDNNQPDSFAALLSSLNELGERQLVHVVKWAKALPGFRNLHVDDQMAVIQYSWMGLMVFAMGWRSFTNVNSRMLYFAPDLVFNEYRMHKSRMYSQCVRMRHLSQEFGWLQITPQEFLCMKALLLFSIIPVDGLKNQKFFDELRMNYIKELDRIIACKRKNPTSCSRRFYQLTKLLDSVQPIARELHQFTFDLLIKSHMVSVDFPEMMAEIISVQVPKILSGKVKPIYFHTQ

Androgen receptor [2] = target: T1, Androgen receptor; format: functional; remark: listed apart in the source
Androgen receptor [3] = target: T1, Androgen receptor
[4] = target: T2, 5-hydroxytryptamine receptor 1A (Homo sapiens, UniProt P08908)
T2 sequence (P08908 whole entry): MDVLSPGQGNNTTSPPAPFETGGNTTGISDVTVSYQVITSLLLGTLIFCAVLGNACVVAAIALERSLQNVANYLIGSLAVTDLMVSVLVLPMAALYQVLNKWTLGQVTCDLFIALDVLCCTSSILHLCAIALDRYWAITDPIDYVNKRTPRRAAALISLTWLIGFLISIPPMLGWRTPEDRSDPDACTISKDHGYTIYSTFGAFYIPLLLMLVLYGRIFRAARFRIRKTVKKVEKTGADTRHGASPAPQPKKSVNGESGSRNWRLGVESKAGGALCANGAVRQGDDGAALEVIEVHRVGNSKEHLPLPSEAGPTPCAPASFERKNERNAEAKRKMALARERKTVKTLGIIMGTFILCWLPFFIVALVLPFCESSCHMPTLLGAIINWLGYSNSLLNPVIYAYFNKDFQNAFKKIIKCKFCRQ

Progesterone receptor = target: T3, Progesterone receptor (Homo sapiens, UniProt P06401)
T3 sequence (P06401 whole entry): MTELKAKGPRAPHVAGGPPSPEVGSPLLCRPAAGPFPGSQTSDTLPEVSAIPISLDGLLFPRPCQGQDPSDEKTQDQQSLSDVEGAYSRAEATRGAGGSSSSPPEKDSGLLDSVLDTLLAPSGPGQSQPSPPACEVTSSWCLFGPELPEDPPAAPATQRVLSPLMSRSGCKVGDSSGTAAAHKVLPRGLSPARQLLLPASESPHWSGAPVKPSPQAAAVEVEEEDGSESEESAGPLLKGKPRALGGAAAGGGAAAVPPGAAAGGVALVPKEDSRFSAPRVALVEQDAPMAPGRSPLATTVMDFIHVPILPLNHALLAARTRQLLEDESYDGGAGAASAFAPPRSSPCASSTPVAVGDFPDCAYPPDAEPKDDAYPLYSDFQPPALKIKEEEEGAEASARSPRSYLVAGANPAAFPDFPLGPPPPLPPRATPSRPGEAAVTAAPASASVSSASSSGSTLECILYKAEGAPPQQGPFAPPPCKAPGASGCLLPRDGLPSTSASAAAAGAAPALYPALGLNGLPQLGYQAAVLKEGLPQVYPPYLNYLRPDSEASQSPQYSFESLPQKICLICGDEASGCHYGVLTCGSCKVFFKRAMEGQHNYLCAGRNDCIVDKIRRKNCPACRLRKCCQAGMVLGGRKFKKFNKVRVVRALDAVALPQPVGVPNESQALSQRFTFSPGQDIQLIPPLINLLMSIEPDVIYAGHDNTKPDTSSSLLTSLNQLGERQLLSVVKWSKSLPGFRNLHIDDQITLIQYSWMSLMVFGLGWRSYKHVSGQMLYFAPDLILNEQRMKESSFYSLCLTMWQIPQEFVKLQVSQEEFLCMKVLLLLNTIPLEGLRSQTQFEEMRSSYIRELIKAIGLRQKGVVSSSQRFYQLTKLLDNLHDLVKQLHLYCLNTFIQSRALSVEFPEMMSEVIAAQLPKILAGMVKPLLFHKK

[5] = target: T4, Endothelin receptor type B (Homo sapiens, UniProt P24530)
T4 sequence (P24530 whole entry): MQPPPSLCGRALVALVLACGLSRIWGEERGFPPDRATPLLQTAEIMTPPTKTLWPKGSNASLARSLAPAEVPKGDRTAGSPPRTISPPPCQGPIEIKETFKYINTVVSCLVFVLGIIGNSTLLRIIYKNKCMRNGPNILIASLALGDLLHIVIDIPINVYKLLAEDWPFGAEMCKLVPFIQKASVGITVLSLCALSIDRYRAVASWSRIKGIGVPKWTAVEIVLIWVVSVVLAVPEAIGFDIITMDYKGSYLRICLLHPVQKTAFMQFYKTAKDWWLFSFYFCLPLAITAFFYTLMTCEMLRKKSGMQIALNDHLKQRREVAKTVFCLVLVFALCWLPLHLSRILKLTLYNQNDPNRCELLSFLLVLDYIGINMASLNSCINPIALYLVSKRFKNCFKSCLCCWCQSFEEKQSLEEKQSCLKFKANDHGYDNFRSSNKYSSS
Further: assay procedure not described here.

CC(C)N(CCCCOCC(=O)O)c1cnc(-c2ccccc2)c(-c2ccccc2)n1
AC50 (Androgen receptor [1]): 19 µM | AC50 (Androgen receptor [2]): > 30 µM

CC(=O)c1ccc(S(=O)(=O)NC(=O)NC2CCCCC2)cc1 [ACETOHEXAMIDE]
AC50 (Androgen receptor [3]): > 10 µM

COc1cc(C)c(/C=C/C(C)=C/C=C/C(C)=C/C(=O)O)c(C)c1C [ACITRETIN]
AC50 (Androgen receptor [3]): 4.6 µM

CCC1(CCC(C)C)C(=O)NC(=O)NC1=O [AMOBARBITAL]
AC50 (Androgen receptor [3]): > 10 µM

Cc1cc(=O)n(-c2ccccc2)n1C [ANTIPYRINE]
AC50 (Androgen receptor [3]): > 30 µM | AC50 [4]: > 10 µM | AC50 (Progesterone receptor): > 30 µM

O=C(O)c1ccc(NC(=O)[C@H](Cc2ccc(O)cc2)NC(=O)c2ccccc2)cc1 [BENTIROMIDE]
AC50 (Androgen receptor [3]): > 10 µM

Clc1ccc(CCC(Cn2ccnc2)Sc2c(Cl)cccc2Cl)cc1 (centres undefined) [BUTOCONAZOLE]
AC50 (Androgen receptor [1]): 9.2 µM | AC50 (Androgen receptor [2]): > 30 µM

COc1cc(N)c(Cl)cc1C(=O)NC1CCN(CCCOc2ccc(F)cc2)CC1OC (centres undefined) [CISAPRIDE]
AC50 [5]: > 30 µM | AC50 [4]: > 10 µM | AC50 (Progesterone receptor): > 30 µM

CC(CN(C)C)C(C)(O)Cc1ccc(Cl)cc1 (centres undefined) [CLOBUTINOL]
AC50 (Androgen receptor [3]): > 30 µM

CCOC(=O)C(C)(C)Oc1ccc(Cl)cc1 [CLOFIBRATE]
AC50 [5]: > 30 µM | AC50 [4]: > 10 µM | AC50 (Progesterone receptor): > 30 µM

CCCCOc1ccc(C(=O)CCN2CCCCC2)cc1 [DYCLONINE]
AC50 [5]: > 30 µM | AC50 [4]: > 10 µM | AC50 (Progesterone receptor): > 30 µM

CC(C)NC[C@H](O)COc1ccc(CC(N)=O)cc1 [ESATENOLOL]
AC50 [5]: > 30 µM | AC50 [4]: > 10 µM | AC50 (Progesterone receptor): > 30 µM

CCOC(=O)c1ncn2c1CN(C)C(=O)c1cc(F)ccc1-2 [FLUMAZENIL]
AC50 (Androgen receptor [1]): > 30 µM | AC50 (Androgen receptor [3]): > 10 µM | AC50 (Androgen receptor [2]): > 30 µM

CC/C=C\C/C=C\C/C=C\C/C=C\C/C=C\CCCC(=O)OCC [ICOSAPENT ETHYL]
AC50 (Androgen receptor [1]): 23 µM | AC50 (Androgen receptor [2]): > 30 µM

NNC(=O)c1ccncc1 [ISONIAZID]
AC50 [5]: > 30 µM | AC50 [4]: > 10 µM | AC50 (Progesterone receptor): > 30 µM

O=C1Nc2ccc(Cl)cc2C(c2ccccc2Cl)=NC1O (centres undefined) [LORAZEPAM]
AC50 [5]: > 30 µM | AC50 (Androgen receptor [3]): > 30 µM | AC50 [4]: > 10 µM | AC50 (Progesterone receptor): 26.2 µM

CC(=O)[C@H]1CC[C@H]2[C@@H]3C[C@H](C)C4=CC(=O)CC[C@]4(C)[C@H]3[C@@H](O)C[C@]12C [MEDRYSONE]
AC50 (Androgen receptor [3]): 0.257 µM

Cc1ccnc2c1NC(=O)c1cccnc1N2C1CC1 [NEVIRAPINE]
AC50 [5]: > 30 µM | AC50 [4]: > 10 µM | AC50 (Progesterone receptor): > 30 µM

O=C(c1cc(Cc2n[nH]c(=O)c3ccccc23)ccc1F)N1CCN(C(=O)C2CC2)CC1 [OLAPARIB]
AC50 (Androgen receptor [3]): > 30 µM

Fc1ccc([C@@H]2CCNC[C@H]2COc2ccc3c(c2)OCO3)cc1 [PAROXETINE]
AC50 [5]: > 30 µM | AC50 (Androgen receptor [3]): > 30 µM | AC50 [4]: > 10 µM | AC50 (Progesterone receptor): > 30 µM

c1ccc(C2(N3CCCCC3)CCCCC2)cc1 [PHENCYCLIDINE]
AC50 (Androgen receptor [1]): > 30 µM | AC50 (Androgen receptor [2]): > 30 µM

OC[C@H]1O[C@@H](Oc2cc(O)cc(/C=C/c3ccc(O)cc3)c2)[C@H](O)[C@@H](O)[C@@H]1O [PICEID]
AC50 (Androgen receptor [1]): > 30 µM | AC50 (Androgen receptor [2]): > 30 µM

O=C1CC[C@@H](C(=O)N2CSC[C@H]2C(=O)O)N1 [PIDOTIMOD] ([pGlu]-[Thz]-OH)
AC50 (Androgen receptor [1]): > 30 µM | AC50 (Androgen receptor [2]): > 30 µM

COc1cc(C(=O)OCc2cccc(COC(=O)c3cc(OC)c(OC)c(OC)c3)n2)cc(OC)c1OC [PIROZADIL]
AC50 (Androgen receptor [1]): > 30 µM | AC50 (Androgen receptor [2]): > 30 µM

CCCN(CCC)S(=O)(=O)c1ccc(C(=O)O)cc1 [PROBENECID]
AC50 (Androgen receptor [3]): > 10 µM

CCC(NC(C)C)C(O)c1ccc(O)c2[nH]c(=O)ccc12 (centres undefined) [PROCATEROL]
AC50 (Androgen receptor [1]): > 30 µM | AC50 (Androgen receptor [2]): > 30 µM

CCC(=O)O[C@](Cc1ccccc1)(c1ccccc1)[C@H](C)CN(C)C [PROPOXYPHENE]
AC50 [5]: > 30 µM | AC50 [4]: > 10 µM | AC50 (Progesterone receptor): > 30 µM

CCc1nc(N)nc(N)c1-c1ccc(Cl)cc1 [PYRIMETHAMINE]
AC50 [4]: > 10 µM

O=c1c(O)c(-c2ccc(O)c(O)c2)oc2cc(O)cc(O)c12 [QUERCETIN]
AC50 [5]: > 30 µM | AC50 [4]: > 10 µM | AC50 (Progesterone receptor): 14.1 µM

CCN1CCCC1CNC(=O)c1cc(S(=O)(=O)CC)ccc1OC (centres undefined) [SULTOPRIDE]
AC50 (Androgen receptor [1]): > 30 µM | AC50 (Androgen receptor [2]): > 30 µM

C=CCN1CCc2nc(N)sc2CC1 [TALIPEXOLE]
AC50 (Androgen receptor [1]): > 30 µM | AC50 (Androgen receptor [2]): > 30 µM

CCOC(=O)c1ccc(C#Cc2ccc3c(c2)C(C)(C)CCS3)nc1 [TAZAROTENE]
AC50 [4]: > 10 µM | AC50 (Progesterone receptor): > 30 µM

CCOC(=O)[C@@H](N)Cc1ccc(-c2cc(O[C@H](c3ccc(Cl)cc3-n3ccc(C)n3)C(F)(F)F)nc(N)n2)cc1 [TELOTRISTAT ETHYL]
AC50 (Androgen receptor [1]): > 30 µM | AC50 (Androgen receptor [2]): > 30 µM

CC(C(=O)O)c1ccc2c(c1)CC(=O)c1ccccc1S2 (centres undefined) [ZALTOPROFEN]
AC50 (Androgen receptor [1]): > 30 µM | AC50 (Androgen receptor [2]): > 30 µM

CC(c1cc2ccccc2s1)N(O)C(N)=O (centres undefined) [ZILEUTON]
AC50 (Androgen receptor [3]): > 30 µM
